Consider 4 molecules from ChEMBL document CHEMBL4418297, “2,5,6,7-tetrasubstituted thiazolo[4,5-b]pyridine derivatives and use thereof” (2018).

Molecules are shown by their SMILES.

The experiment has as its system Mus musculus. Description: Antiinflammatory activity in iv dosed ICR mouse model of CLP-induced sepsis assessed as increase in survival rate. It is filed as functional.
`CCCNc1nc2nc3c(c(-c4ccc(OC)cc4)c2s1)CCCC3`: the Survival was determined as 40%.

Regarding `CCCNc1nc2nc3c(c(-c4ccc(OC)cc4)c2s1)CCCCC3`, the Survival was found to be 40%.

For the molecule `CCCNc1nc2nc3c(c(-c4ccccc4)c2s1)CCCCC3`, the Survival amounted to 40%.

Regarding `O=[N+]([O-])c1ccc(-c2c3c(nc4nc(N5CCCC5)sc24)CCCC3)cc1`, the Survival turned out to be 40%.
